The test addresses Diacylglycerol kinase alpha (Homo sapiens, UniProt P23743). The test can be described thus: Inhibition of His-tagged recombinant human DGKalpha using DLG as substrate preincubated with substrate and ATP for 1 mins followed by compound addition and measured after 90 mins by ADP-Glo kinase assay. For orientation: In ADP-Glo the light output rises with the ADP produced.

pIC50: −log10 of the molar value.

Sequence of Diacylglycerol kinase alpha (P23743 whole entry): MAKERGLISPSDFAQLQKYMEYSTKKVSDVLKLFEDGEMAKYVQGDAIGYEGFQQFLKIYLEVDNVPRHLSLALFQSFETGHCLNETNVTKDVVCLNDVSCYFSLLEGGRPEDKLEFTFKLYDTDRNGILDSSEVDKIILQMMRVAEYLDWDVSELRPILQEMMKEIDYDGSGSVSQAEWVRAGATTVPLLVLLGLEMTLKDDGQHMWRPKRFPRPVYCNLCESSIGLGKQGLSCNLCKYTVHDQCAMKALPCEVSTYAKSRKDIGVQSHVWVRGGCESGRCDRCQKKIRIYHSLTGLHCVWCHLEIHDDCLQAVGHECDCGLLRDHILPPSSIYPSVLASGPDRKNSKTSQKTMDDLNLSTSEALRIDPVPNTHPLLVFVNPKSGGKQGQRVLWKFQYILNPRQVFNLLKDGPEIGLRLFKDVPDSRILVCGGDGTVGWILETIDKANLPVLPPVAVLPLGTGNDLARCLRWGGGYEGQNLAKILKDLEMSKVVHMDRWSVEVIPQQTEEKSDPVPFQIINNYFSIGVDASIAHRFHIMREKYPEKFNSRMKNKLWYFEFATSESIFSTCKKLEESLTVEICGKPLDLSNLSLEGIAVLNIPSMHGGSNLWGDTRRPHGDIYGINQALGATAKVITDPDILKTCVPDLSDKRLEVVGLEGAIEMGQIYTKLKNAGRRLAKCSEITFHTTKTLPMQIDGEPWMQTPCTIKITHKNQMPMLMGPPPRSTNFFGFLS

The term pIC50 denotes the IC50 on a negative log10 scale, so that one unit is a factor of ten. With `CCN1CCC2(CCCN(c3c(/C=C(\F)c4nccc(N5CC(F)(F)C5)n4)ccc(Oc4ccccc4F)c3C(F)(F)F)C2)CC1`, the negative-log IC50 (pIC50) was not below 7.70.
As for `F/C(=C\c1ccc(Oc2ccccc2F)c(C(F)(F)F)c1N1CCCC2(CCN(CC3CC3)CC2)C1)c1nccc(-c2cnsc2)n1`, the negative-log IC50 (pIC50) was not below 7.70.
With `COc1cc(F)ccc1Oc1ccc(/C=C(\F)c2nncc(N3CCC(F)(F)C3)n2)c(N2CCC[C@@H](CN)C2)c1Cl` the figure was not below 7.70; with `CCN1CCC2(CC1)CN(c1c(/C=C(\F)c3nccc(-c4ccnnc4)n3)ccc(Oc3ccccc3)c1C(F)(F)F)CCO2`, not below 7.70; with `NC[C@H]1CCCN1c1c(/C=C(\F)c2nccc(-c3ccnnc3)n2)ccc(Oc2ccccc2)c1Cl`, not below 7.70.

The record behind these values is ChEMBL document CHEMBL6074640, “Novel Heteroaryl Fluoroalkenes as DGK Inhibitors for Treating Cancer, Particularly Metastatic Melanoma” (ACS Med Chem Lett, 2024).
